Among the data in patent US20250049759A1, “PHARMACEUTICAL PREPARATION FOR ASSISTING IN PROMOTING SLEEP AND PREPARATION METHOD THEREOF” (Changde Jizhi Biological Technology Co., Ltd, priority 2023, published 2025) are Sleep duration and Sleep latency values, retold here.

This experiment deals with Kunming mice. In words: Effects on sleep in mice: pentobarbital sodium of suprathreshold dose, sleep latency and duration. The conditions noted are these: gavage once a day for two consecutive weeks (diazepam 0.75 mg/kg; melatonin 75 mg/kg; embodiment/comparative raw material 3.5 g/kg), 50 mg/kg pentobarbital sodium i.p. 60 minutes after last administration, n=10. The experiment is classed as in vivo. The source says:
• Test group 1: diazepam group. • Test group 2: melatonin group. • Test group 3: diazepam+embodiment 1 group. • Test group 4: diazepam+embodiment 4 group. • Test group 5: diazepam+embodiment 5 group. • Test group 6: diazepam+comparative example 1 group. • Test group 7: diazepam+comparative example 2 group.
Note: embodiments and comparative examples were concentrated and dried to obtain test raw materials.
Test animals: Kunming mice, 18-22 g. (specific pathogen free (SPF) grade, provided by the Pharmacology Department of Traditional Chinese Medicine, Beijing University of Chinese Medicine).
Test method: The mice were randomly divided into a control group and a test group. The test group 1: diazepam of 0.75 mg/kg was administrated by gavage once a day for two consecutive weeks. The test group 2: melatonin of 75 mg/kg was administrated by gavage once a day for two consecutive weeks. The test group 3 to test group 7: after administrating diazepam of 0.75 mg/kg by gavage, 3.5 g/kg of the raw material of the embodiment or comparative example is administrated once a day for two consecutive weeks. After 60 minutes of the last intragastric administration, the mice in each group were injected with 50 mg/kg pentobarbital sodium intraperitoneally, and the sleep latency and sleep duration of the mice in each group were recorded with the disappearance of righting reflex more than […] as the sleep standard.

Turning to `CN1C(=O)CN=C(c2ccccc2)c2cc(Cl)ccc21` [Test group 1, diazepam], the Sleep duration stood at 126.37 ± 6.17 min and the Sleep latency came to 2.47 ± 0.27 min.
On the same counts, the results for `COc1ccc2[nH]cc(CCNC(C)=O)c2c1` [Test group 2, melatonin] are 64.38 ± 3.70 min and 4.38 ± 0.35 min.
